Measured values as given in PubChem BioAssay (NCI).
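Exposure lasted 48 hours, with cells grown in 96-well plates and compounds tested at five concentrations. GI50 is the concentration that inhibits growth by half. Definition used: TGI = concentration required for complete inhibition of growth.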

How the values were obtained:
Test in all cases: DTP human tumour cell line panel, 48 h
DLD-1 colon = test system: DLD-1 colon
KM20L2 colon = test system: KM20L2 colon
LXFL 529 NSCLC = test system: LXFL 529 NSCLC
M19-MEL melanoma = test system: M19-MEL melanoma
OVCAR-8 ovarian = test system: OVCAR-8 ovarian
SNB-78 CNS = test system: SNB-78 CNS
SR leukemia = test system: SR leukemia
XF 498 CNS = test system: XF 498 CNS
BT-549 breast = test system: BT-549 breast
786-0 renal = test system: 786-0 renal
DMS 114 small cell lung = test system: DMS 114 small cell lung
DMS 273 small cell lung = test system: DMS 273 small cell lung
HOP-18 NSCLC = test system: HOP-18 NSCLC
RXF-631 renal = test system: RXF-631 renal

Row | Structure (SMILES) | TGI (DLD-1 colon) [µM] | TGI (KM20L2 colon) [µM] | TGI (LXFL 529 NSCLC) [µM] | TGI (M19-MEL melanoma) [µM] | TGI (OVCAR-8 ovarian) [µM] | TGI (SNB-78 CNS) [µM] | TGI (SR leukemia) [µM] | TGI (XF 498 CNS) [µM] | TGI (BT-549 breast) [µM] | TGI (786-0 renal) [µM] | TGI (DMS 114 small cell lung) [µM] | TGI (DMS 273 small cell lung) [µM] | TGI (HOP-18 NSCLC) [µM] | TGI (RXF-631 renal) [µM] | GI50 (OVCAR-8 ovarian) [µM]
1 | C1CCC(OCc2nnn3c2CCC3)OC1 (stereo not given) | > 100 | > 100 | > 100 | > 100 | > 100 | > 100 | > 100 | > 100 | – | – | – | – | – | – | –
2 | Cc1ccc(S(=O)(=O)N2c3ccccc3[C@H]3CCc4c([nH]c5ccccc45)[C@H]32)cc1 | – | – | – | – | > 100 | – | – | – | > 100 | – | – | – | – | – | –
3 | CC(C)OC(=O)Nc1cccc(Cl)c1 | – | – | – | – | > 100 | – | > 100 | – | > 100 | > 100 | – | – | – | – | –
4 | Nc1nc(Cl)cc(NCCCNc2cc(Cl)nc(N)n2)n1 | > 100 | > 100 | > 100 | > 100 | > 100 | – | > 100 | > 100 | – | – | > 100 | > 100 | > 100 | > 100 | –
5 | Cn1cc(-c2csc(-c3cn(C)c4ccc(Br)cc34)n2)c2cnccc21 | – | – | – | – | 3.61 | – | – | – | – | – | – | – | – | – | 1.9
6 | CS/C(C#N)=C(\C#N)SC | – | – | – | – | 6.06 | – | 5.43 | – | – | > 100 | – | – | – | – | –
7 | c1ccc(CSC2(SCc3ccccc3)CCCC2)cc1 | – | – | – | – | > 10 | – | > 10 | – | – | – | – | – | – | – | –
8 | CN1C(=O)CN2C(Cl)(Cl)C2(c2ccccc2F)c2cc([N+](=O)[O-])ccc21 (stereo not given) | > 100 | > 100 | > 100 | > 100 | > 100 | – | > 100 | – | – | – | > 100 | > 100 | – | – | –
9 | CC(N)C(=O)OCN1C(=O)C2C3C=CC(C2C1=O)C1C2C(=O)N(COC(=O)C(C)N)C(=O)C2C31 (stereo not given) | 54.4 | 72.2 | 60.8 | 40 | 47.8 | > 100 | 29.3 | 47.5 | – | 37.6 | 36.5 | 36.7 | > 100 | – | –
10 | Cc1cccc(O)c1-c1nnc(CCCCCCCCc2nnc(-c3c(C)cccc3O)n2N)n1N | – | – | – | – | – | – | > 52.5 | – | > 100 | – | – | – | – | – | –
11 | O=c1oc2ccccc2n1P(=O)(n1c(=O)oc2ccccc21)n1c(=O)oc2ccccc21 | > 100 | > 100 | > 100 | > 100 | – | > 100 | > 100 | > 100 | – | – | > 100 | > 100 | – | > 100 | –
12 | C[C@H]1C(=O)O[C@@H]1[C@H]1COC(C)(C)O1 | – | – | – | – | > 100 | – | > 100 | – | > 100 | – | – | – | – | – | –
13 | NC(=O)c1ccc(NS(=O)(=O)c2ccc(N)cc2)nc1 | – | – | – | – | > 100 | – | – | – | > 100 | > 100 | – | – | – | – | –
